For experiment [1], the system named is MDA-MB-453. Description: drug sensitivity score (DSS), in combination with BLU9931 (DSS (weighted AUC score)); higher = more sensitive (stronger viability decrease); extreme values may be limits of the assay. The settings on record: BLU9931 100 nM; 72 h. Put shortly:
(§1)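 Cells of the MDA-MB-453 line (2000 per well) were added in medium, with or without 100 nM final FGFR4 inhibitor, to 384-well plates predispensed with FIMM Oncology set compounds at five 10-fold dilutions covering a 10,000-fold range. After 72 h at 37 °C, 5% CO2, CellTiterGlo 2.0 read cellular ATP. Percent viability came from per-plate normalisation to control wells, and the drug sensitivity score was defined as a weighted area under a four-parameter logistic fit.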

The test system of experiment [2] is MDA-MB-453. Description: drug sensitivity score (DSS), single agent (DSS (weighted AUC score)); higher = more sensitive (stronger viability decrease); extreme values may be limits of the assay. The settings on record: BLU9931 0 nM; 72 h. Put shortly: as §1

For `CC(C)Oc1ccc(C(=O)N[C@H](CNC(=O)CN(C)C)Cc2ccc(-c3cn4cccc([C@H](C)O)c4n3)cc2)cc1Cl`, the figures for the drug sensitivity score with MDA-MB-453 [1] and with MDA-MB-453 [2] were 8.8 and 14.3, respectively.

With `CCOc1ccn(-c2ccc(F)cc2)c(=O)c1C(=O)Nc1ccc(Oc2ccnc(N)c2Cl)c(F)c1`, the drug sensitivity score in the experiment on MDA-MB-453 [1] and in the experiment on MDA-MB-453 [2] was 0 each time.

`CCn1c(-c2nonc2N)nc2c(C#CC(C)(C)O)ncc(OC[C@H]3CCCNC3)c21`: the drug sensitivity score in the experiment with MDA-MB-453 [1] worked out at 15; in the experiment with MDA-MB-453 [2], 13.

In the case of `CCn1c(C(=O)N(C2CC2)C2CC2)cc2c3c(ncn3C)c(Nc3cc(C)n(C)n3)nc21`, the drug sensitivity score in the experiment with MDA-MB-453 [1] and in the experiment on MDA-MB-453 [2] was 0 each time.

As to `CO[C@@H](C)Cn1c(=O)n(C)c2cnc3ccc(-c4cncc(C(C)(C)O)c4)cc3c21`, the drug sensitivity score in the experiment on MDA-MB-453 [1] and in the experiment with MDA-MB-453 [2] was 15.3 throughout.

As to `C[C@@H](Oc1cc(-n2cnc3ccc(CN4CCN(C)CC4)cc32)sc1C(N)=O)c1ccccc1C(F)(F)F`, the drug sensitivity score stood at 6.3 with MDA-MB-453 [1] and 11.5 with MDA-MB-453 [2].

Regarding `C[C@@]1(C(=O)Nc2ccc(F)nc2)CCCN1c1nc(Nc2cc(C3CC3)n[nH]2)c2cccn2n1`, the drug sensitivity score in the experiment on MDA-MB-453 [1] and in the experiment on MDA-MB-453 [2] was 0 throughout.

Regarding `C[C@H]1C[C@@H](n2c(Nc3ccc(OC(F)(F)F)cc3)nc3cc(CCC(=O)O)ccc32)CC(C)(C)C1`, the drug sensitivity score in the experiment with MDA-MB-453 [1] and in the experiment with MDA-MB-453 [2] was 0 each time.

On to `Cc1c(Cn2c(C)nc3c(C(=O)O)cc(N4CCOCC4)cc32)cccc1C(F)(F)F`, for which the drug sensitivity score in the experiment with MDA-MB-453 [1] and in the experiment on MDA-MB-453 [2] was 0 throughout.

On to `Cc1nc(Nc2n[nH]c3c2CN(C(=O)N[C@H](CN(C)C)c2ccccc2)C3(C)C)c2sccc2n1`, for which the drug sensitivity score with MDA-MB-453 [1] was determined as 8.7; in the experiment on MDA-MB-453 [2], 11.4.

Regarding `Cn1cc(C2=Nc3cc(NC(=O)C(N)C4CCCCC4)cc4c3C2=CNNC4=O)cn1` (stereo unspecified), the drug sensitivity score was found to be 9.9 in the experiment on MDA-MB-453 [1] and 14.4 in the experiment on MDA-MB-453 [2].

As for `O=C1Cc2cc(C(=O)NC3C[C@H]4CC[C@@H](C3)N4S(=O)(=O)CC3CCN(CCCC(F)(F)F)CC3)c(Cl)cc2N1` (stereo partly specified), the drug sensitivity score with MDA-MB-453 [1] and in the experiment with MDA-MB-453 [2] was 0 throughout.

Take `COc1ccc(C[C@H](NC(=O)[C@H](C)NC(=O)CN2CCOCC2)C(=O)N[C@@H](Cc2ccccc2)C(=O)C2(C)CO2)cc1` (stereo in doubt) [ONX-0914]: the drug sensitivity score in the experiment on MDA-MB-453 [1] was found to be 13.8; with MDA-MB-453 [2], 14.7.

Turning to `Cn1cc(C[C@@H](N)C(=O)O)c2ccccc21` [1-methyl-D-tryptophan], the values for the drug sensitivity score in the experiment on MDA-MB-453 [1] and with MDA-MB-453 [2] were 0 and 0.2, respectively.

Regarding `CC/C(=C(\c1ccc(O)cc1)c1ccc(OCCN(C)C)cc1)c1ccccc1` [4-hydroxytamoxifen], the values for the drug sensitivity score in the experiment with MDA-MB-453 [1] and in the experiment with MDA-MB-453 [2] were 4.5 and 4.8, respectively.

On to `Nc1ncnc2c1nc(N)n2[C@@H]1O[C@H](CO)[C@@H](O)[C@H]1O` [8-amino-adenosine], for which the figures for the drug sensitivity score in the experiment with MDA-MB-453 [1] and in the experiment on MDA-MB-453 [2] were 25 and 22.4, respectively.

Take `Nc1ncnc2c1nc(Cl)n2[C@@H]1O[C@H](CO)[C@@H](O)[C@H]1O` [8-chloro-adenosine]: the drug sensitivity score amounted to 9.4 with MDA-MB-453 [1] and 8.1 with MDA-MB-453 [2].

`COc1cc2c(cc1OCCCN1CCCC1)N=C(N)C21CCC1` [A-366]: the drug sensitivity score in the experiment with MDA-MB-453 [1] and with MDA-MB-453 [2] was 0 each time.

With `COc1ccc(S(=O)(=O)Nc2cccnc2Nc2ccc(O)cc2)cc1` [ABT-751], the drug sensitivity score with MDA-MB-453 [1] was 7.9; with MDA-MB-453 [2], 7.4.

Consider `C[C@H](Nc1ncnc2[nH]cnc12)c1cc2ccc(F)cc2nc1-c1ccccn1` [AMG319], for which the figures for the drug sensitivity score in the experiment on MDA-MB-453 [1] and with MDA-MB-453 [2] were 0.3 and 1.1, respectively.

On to `CC(C)[C@@H](CS(=O)(=O)C(C)C)N1C(=O)[C@@](C)(CC(=O)O)C[C@H](c2cccc(Cl)c2)[C@H]1c1ccc(Cl)cc1` [AMG-232], for which the drug sensitivity score in the experiment with MDA-MB-453 [1] was found to be 0; with MDA-MB-453 [2], 0.2.

As to `COCCOc1cnc2ccn([C@H](C)c3nnc4c(F)cc(-c5cnn(C)c5)cn34)c(=O)c2c1` [AMG-337], the drug sensitivity score in the experiment with MDA-MB-453 [1] and with MDA-MB-453 [2] was 0 throughout.

`CC1CCC(n2c3cnccc3c3cnc(Nc4ccc5c(n4)CCN(C(=O)CO)C5)nc32)CC1` (stereo unspecified) [AMG-925]: the results for the drug sensitivity score in the experiment on MDA-MB-453 [1] and in the experiment on MDA-MB-453 [2] were 3.4 and 2.6, respectively.

For `COCC1(CO)C(=O)C2CCN1CC2` (stereo unspecified) [APR-246], the drug sensitivity score was 0.4 with MDA-MB-453 [1] and 0 in the experiment on MDA-MB-453 [2].

For the compound `CC(C)[C@H](C(=O)Nc1ccc(C(=O)NO)cc1)c1ccccc1` [AR-42], the drug sensitivity score in the experiment with MDA-MB-453 [1] came to 17.8; in the experiment on MDA-MB-453 [2], 18.1.

On to `Cc1sc2c(c1C)C(c1ccc(Cl)cc1)=N[C@@H](CC(=O)Nc1ccc(OCCOCCOCCOCCNc3cccc4c3C(=O)N(C3CCC(=O)NC3=O)C4=O)cc1)c1nnc(C)n1-2` (stereo partly specified) [ARV-825], for which the results for the drug sensitivity score in the experiment with MDA-MB-453 [1] and with MDA-MB-453 [2] were 10.7 and 10.1, respectively.

With `COc1cc(N2CCC(N3CCN(C)CC3)CC2)ccc1Nc1ncnc(Nc2ccccc2S(=O)(=O)C(C)C)n1` [ASP3026], the drug sensitivity score was 0.3 in the experiment on MDA-MB-453 [1] and 0.8 in the experiment with MDA-MB-453 [2].

Turning to `O=C(NC1CCNCC1)c1n[nH]cc1NC(=O)c1c(Cl)cccc1Cl` [AT7519], the values for the drug sensitivity score with MDA-MB-453 [1] and with MDA-MB-453 [2] were 14.6 and 13.2, respectively.

For `O=C(Nc1c[nH]nc1-c1nc2ccc(CN3CCOCC3)cc2[nH]1)NC1CC1` [AT9283], the drug sensitivity score in the experiment on MDA-MB-453 [1] and in the experiment on MDA-MB-453 [2] was 2.3 throughout.

As for `CN[C@@H](C)C(=O)N[C@H]1CN(C(=O)CC(C)C)CC[C@H]2CC[C@@H](C(=O)NC(c3ccccc3)c3ccccc3)N2C1=O` [AT-406], the drug sensitivity score in the experiment with MDA-MB-453 [1] and with MDA-MB-453 [2] was 5.1 each time.

In the case of `CC[C@H](CC#N)OC(=O)N[C@@H](C)c1cccc(NC(=O)Nc2ccc(-c3cnco3)c(OC)c2)c1` [AVN944], the drug sensitivity score was 3.2 with MDA-MB-453 [1] and 7.1 in the experiment on MDA-MB-453 [2].

Take `COc1cc(N2CCN(C)CC2)ccc1Nc1nccc(-c2cn(C)c3cnccc23)n1` [AZ191]: the drug sensitivity score in the experiment with MDA-MB-453 [1] turned out to be 1.2; with MDA-MB-453 [2], 1.3.

`COc1cc(OC2CCN(C)CC2)ccc1Nc1ncc2c(n1)n(C1CCCC1)c(=O)n2C` [AZ 3146]: the drug sensitivity score in the experiment with MDA-MB-453 [1] was found to be 1; in the experiment with MDA-MB-453 [2], 2.6.

Take `CN(C)CCCOc1ccc(-c2ccc3ncc4c(c3c2)n(C2CCOCC2)c(=O)n4C)cn1` [AZD0156]: the drug sensitivity score with MDA-MB-453 [1] stood at 3; in the experiment on MDA-MB-453 [2] it was 1.6.

As to `N[C@@H]1CCCN(c2c(/C=C3\SC(=O)NC3=O)cccc2-c2ccccc2)C1` [AZD1208], the figures for the drug sensitivity score in the experiment with MDA-MB-453 [1] and in the experiment on MDA-MB-453 [2] were 0.1 and 0.3, respectively.

Regarding `Cc1cc(Nc2nc(N[C@@H](C)c3ncc(F)cn3)ncc2Cl)[nH]n1` [AZD1480], the drug sensitivity score was found to be 0 in the experiment on MDA-MB-453 [1] and 0.3 with MDA-MB-453 [2].

For the compound `C=CCn1c(=O)c2cnc(Nc3ccc(N4CCN(C)CC4)cc3)nc2n1-c1cccc(C(C)(C)O)n1` [AZD1775], the values for the drug sensitivity score in the experiment with MDA-MB-453 [1] and with MDA-MB-453 [2] were 12.4 and 13.7, respectively.

As for `COc1cc2ncnc(Nc3cccc(Cl)c3F)c2cc1OC(=O)N1CCN(C)C[C@H]1C` [AZD3759], the drug sensitivity score turned out to be 0.9 in the experiment on MDA-MB-453 [1] and 0 with MDA-MB-453 [2].
